{"source": "patent US9394544B2", "about": "“Ameliorating oxidative stress in neurodegenerative disease via Nox1 targeting” (University of Central Florida Research Foundation, Inc., priority 2013, dated 2016)", "key": {"rat SN": {"test_system": "rat SN", "experiment": "Western blot / dot blot / protein carbonyl immunoblot of SN lysates, PQ rat model", "assay_type": "in vivo", "procedure": "The experiments were performed on rats, in accordance with the National Institutes for Health Guide for the Care and Use of Laboratory Animals. All procedures were approved by the local Animal Care and Use Committee. Male Wistar rats (8-10 weeks; Charles River) were maintained in a temperature/humidity-controlled environment under a 12 h light/dark cycle with ad libitum access to food and water. As depicted in FIG. 13A, each animal received four intraperitoneal injections, separated by 1 d, of either vehicle (saline) or PQ (10 mg/kg body weight; b.w.), according to a previously published dose (Manning-Bog et al., 2002; Harraz et al., 2008; Cristovao et al., 2009). All animals were weighed at day 1 and 12. In the studies using the paradigm depicted in FIG. 13A, 4 weeks before starting PQ intraperitoneal injection, animals were stereotaxically injected with various viral constructs at the right SN using the following coordinates: mediolateral, +2.0; anteroposterior, −5.3; dorsoventral, −6.8. Animals were organized into four groups: vector+vehicle: stereotaxically injected with adeno-associated virus (AAV) particles containing a green fluorescent protein (GFP) vector (vector) and then intraperitoneally injected with saline (vehicle) (n=10); vector+PQ: stereotaxically injected with vector and then intraperitoneally injected with PQ (n=10); shNox1+PQ: stereotaxically injected with AAV particles harboring Nox1 shRNA and then intraperitoneally injected with PQ (n=10); shNox1+vehicle: stereotaxically injected with Nox1 shRNA and then intraperitoneally injected with vehicle (n=8). AAV containing GFP vector was used as a negative control. Five days after the last PQ intraperitoneal injection, animals were killed. For Western blot analysis, brains were collected and total protein lysates from SN were prepared. For immunohistochemical analysis, animals were intracardially perfused before collecting the brains.\n(§1) For Western blot, brain tissues were lysed on ice in radioimmunoprecipitation assay buffer containing 50 mMTris/HCl, pH 8.0, 150 mM NaCl, 2 mM sodium orthovanadate, 1% Nonidet-P40 (NP-40), 0.5% sodium deoxycholate, and 0.1% SDS, containing 1% of a protease inhibitor mixture (AEBSF, pepstatinA, E-64, bestatin, leupeptin, and aprotinin). The soluble fraction was obtained and equal amounts of cell lysate protein were loaded in each lane of a 12% SDS-PAGE or 4/10% to 20% polyacrylamide gel. After electrophoresis and transfer onto a polyvinylidene difluoride (PVDF) membrane, specific protein bands were detected using appropriate primary antibodies (rabbit anti-Nox1, rabbit anti-α-synuclein, mouse anti-Ubiquitin, mouse anti-tyrosine hydroxylase (TH), and mouse anti-β-actin) and secondary antibodies conjugated to alkaline phosphatase or […] peroxidase (anti-rabbit or anti-mouse) followed by Enhanced Chemifluorescence (ECF) detection or Enhanced Chemiluminescence (ECL).\nFor dot blot, brain tissues were homogenized in a buffer containing 0.32 M sucrose, 1 mM NaHCO3, 1 mM MgCl2, 0.5 mM CaCl2, and 1% of a protease inhibitor mixture (AEBSF, pepstatinA, E-64, bestatin, leupeptin, and aprotinin). The soluble fraction was obtained by centrifugation at 1000×g and 5 μl of each sample, containing the same amount of protein, was spotted in a PVDF membrane. Membrane was air dried for 4 h and blocked overnight at 4° C. in 5% nonfat dry milk TBST (10 mM Tris-HCl, pH 7.8, 100 mM NaCl, 0.05% Tween 20) solution. Protein spots were detected using the primary antibody, rabbit anti-A11 oligomer (0.5 μg/ml) from Invitrogen, and secondary antibody conjugated to […] peroxidase (anti-rabbit) followed by ECL detection.\nThe levels of protein carbonyl were measured in protein extracts from the SN tissues, using the OxiSelect Protein Carbonyl Immunoblot Kit (Cell Biolabs), according to the manufacturer's instructions, with small modifications. […]"}, "α-synuclein": {"test_system": "α-synuclein", "experiment": "α-Synuclein protein levels (immunoblot) in N27 cells exposed to PQ", "assay_type": "cell-based, rat", "procedure": "The N27 cells were grown in RPMI 1640 medium containing 10% fetal bovine serum (FBS), 100 U penicillin, and 50 μg/ml streptomycin, in a humidified atmosphere of 5% CO2 at 37° C. N27 cultures were prepared for experiments by plating the cells on polystyrene tissue culture dishes at a density of 0.5×10^5 cells/well in 24-well culture plates with glass coverslip and at 1.5×10^5 cells/well in 6-well culture plates.\nas §1"}}}
{"compound": "C[n+]1ccc(-c2cc[n+](C)cc2)cc1", "note": "[PQ, paraquat]", "values": [{"measurement": "increase in protein carbonyl levels after PQ exposure", "setting": "rat SN; ipsilateral SN", "result": 95, "unit": "%"}, {"measurement": "increase in ubiquitin protein levels, vector+PQ vs vector+vehicle", "setting": "rat SN; ipsilateral SN", "result": 43, "unit": "%"}, {"measurement": "increase in α-synuclein protein levels, vector+PQ vs vector+vehicle", "setting": "rat SN; ipsilateral SN, Western blot", "result": 54, "unit": "%"}, {"measurement": "increase in A11-positive oligomers, vector+PQ vs vector+vehicle", "setting": "rat SN; ipsilateral SN, dot blot", "result": 68, "unit": "%"}, {"measurement": "TH protein levels compared with vector+vehicle", "setting": "rat SN; ipsilateral SN, vector+PQ group, or Nox1 knocked down before PQ", "result": 65, "unit": "%"}, {"measurement": "Nox1 protein level in the SN, higher than vehicle group", "setting": "rat SN; rats, PQ 10 mg/kg i.p. x4", "result": 58, "unit": "%"}, {"measurement": "increase in α-synuclein protein levels in the SN (Western blot)", "setting": "rat SN; rats, PQ 10 mg/kg i.p. x4, vs vehicle", "result": 50, "unit": "%"}, {"measurement": "Nox1 protein, higher than vector+vehicle", "setting": "rat SN; vector+PQ group, ipsilateral SN", "result": 70, "unit": "%"}, {"measurement": "increase of α-synuclein protein levels", "setting": "α-synuclein; 800 μM, 8 h", "result": 55, "unit": "%"}, {"measurement": "increase of α-synuclein protein levels", "setting": "α-synuclein; 800 μM, 24 h", "result": 61, "unit": "%"}, {"measurement": "increase of α-synuclein protein levels", "setting": "α-synuclein; 1000 μM, 8 h", "result": 60, "unit": "%"}, {"measurement": "increase of α-synuclein protein levels", "setting": "α-synuclein; 1000 μM, 24 h", "result": 27, "unit": "%"}]}
